Laboratory results taken from ChEMBL document CHEMBL5728196, “Phenylate derivative, preparation method therefor, and pharmaceutical composition and uses thereof” (2021).

Molecular target: Programmed cell death protein 1/Programmed cell death 1 ligand 1 (Homo sapiens, UniProt Q15116+Q9NZQ7)
Test: Inhibitory Activity Assay: 1. In vitro activity evaluation: Cisbio PD-1/PD-L1 binding assay kit was applied for the detection method of in vitro enzymology level.Screening Principles and Methods of PD-1/PD-L1 Small Molecule Inhibitors1) Principle: PD-1 protein is with HIS tag, and PD-1 ligand PD-L1 is with hFc tag. Eu labeled anti-hFc antibody and XL665 labeled anti-HIS antibody are combined with the above two label proteins respectively. After laser excitation, energy can be transferred from donor Eu to receptor XL665, allowing XL665 to glow. […] Reagents should be dispensed in the following order. For 384-well white ELISA plate, 2 μl of diluent or target compound diluted with diluent was added to each well, and then 4 μl of PD-1 protein and 4 μl of PD-L1 protein were added per well, incubated for 15 min at room temperature; and 10 μl of a mixture of anti-Tag1-Eu3+ and anti-Tag2-XL665 was added per well and incubated for 1 h to 4 h at room temperature and the fluorescence signals at 665 nm and 620 nm were measured with an Envison instrument. HTRF rate=(665 nm/620 nm)*104. 8-10 concentrations were detected for each compound and IC50 was calculated by Graphpad software.
Type: protein-complex assay

Programmed cell death protein 1/Programmed cell death 1 ligand 1, sequence (Q15116 whole entry): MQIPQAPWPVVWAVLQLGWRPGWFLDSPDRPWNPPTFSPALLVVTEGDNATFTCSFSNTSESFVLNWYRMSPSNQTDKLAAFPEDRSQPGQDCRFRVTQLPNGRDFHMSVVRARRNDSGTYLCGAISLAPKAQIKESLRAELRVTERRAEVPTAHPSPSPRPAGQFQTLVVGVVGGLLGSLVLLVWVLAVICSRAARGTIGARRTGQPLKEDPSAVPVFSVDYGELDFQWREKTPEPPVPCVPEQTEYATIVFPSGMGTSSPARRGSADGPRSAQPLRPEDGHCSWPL
Programmed cell death protein 1/Programmed cell death 1 ligand 1, sequence (Q9NZQ7 whole entry): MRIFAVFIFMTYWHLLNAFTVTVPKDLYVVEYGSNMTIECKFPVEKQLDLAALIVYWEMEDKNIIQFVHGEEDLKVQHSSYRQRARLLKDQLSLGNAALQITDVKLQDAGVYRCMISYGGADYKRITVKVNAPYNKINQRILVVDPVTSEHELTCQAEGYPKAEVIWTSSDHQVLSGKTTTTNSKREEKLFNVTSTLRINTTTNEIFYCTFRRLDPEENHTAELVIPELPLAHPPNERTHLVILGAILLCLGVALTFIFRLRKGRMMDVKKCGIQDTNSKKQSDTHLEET

How did the IC50 turn out when `NC(=O)COc1cc(OCc2cccc(-c3ccc4c(c3)OCCO4)c2Br)c(Cl)cc1CN1C[C@@H](O)C[C@H]1C(=O)O` was run?
Its IC50 is 182 nM.
